The nature of series [1]: EE2 plasma pharmacokinetics alone and with SYM-1219 2 grams (Example 2, Part B). Type of series: in vivo, human.
A short description of a further series: clinical. The following applies: female, human, plasma, Mean (% CV); for AUC(0-t): NET AUC0-t; for AUC(0-inf): NET AUC0-∞; for Cmax: NET Cmax.
Series [2] has as its system clinical isolates of T. vaginalis. The series can be described thus: Susceptibility testing, minimal lethal concentration (MLC), aerobic. Type of series: cell-based, Trichomonas vaginalis. The protocol: Susceptibility testing was conducted with one hundred (100) clinical isolates of T. vaginalis.
Archived, de-identified, clinical isolates of T. vaginalis that were banked in liquid nitrogen were used for this study. The samples had been collected between July 2015 and June 2017, in accordance with institutional review board guidelines, and all patients had consented to the storage and use of their samples for subsequent testing. […] In brief, trichomonads were grown in Diamond's medium 1025 (containing trypticase soy broth, yeast extract, maltose, and calf serum) adjusted to pH 5.9 and supplemented with streptomycin at 1 g/liter and penicillin G at 100 U/ml. A hemocytometer was used to count the trichomonad population and to adjust it to a concentration of 66,666 cells/ml. Isolates were tested in microtiter plates under aerobic conditions. […] Plates were then incubated at 37° C. for 46 hours to 50 hours and read with a Zeiss Axiovert inverted microscope. The concentration of drug in the microplate wells in which no motile trichomonads were observed was reported as the MLC. […] Low-level resistance was defined as an aerobic MLC of 50 μg/ml to 100 μg/ml, moderate-level resistance as an aerobic MLC of 200 μg/ml, and high-level resistance as an aerobic MLC of >400 μg/ml. The MLCs for metronidazole and secnidazole were analyzed using the Wilcoxon signed-rank test to evaluate the differences between treatments.
Each well of a 96-well plate was filled with 150 μL of T. vaginalis suspension in Diamond's growth media (10^4 trichomonads). […] Cultures were visually assessed for survival, defined by observation of motility, through a 100× inverted microscope.

The conditions of series [3]: CDC 2015 Guidelines - Trichomoniasis; cited from earlier work.
Another series has as its system T. vaginalis. The following applies: cited from earlier work; for Cure rates in randomized clinical trials of recommended regimens: CDC 2015 Guidelines - Trichomoniasis.
Setting [4] is: Group B1 (SYM-1219 2 grams co-administered on Day 1).
[5] abbreviates: Group B1: Period 2 (SYM-1219 2 grams same day) vs Period 1 (EE2/NET alone).
[6] abbreviates: Group B1 Period 1: EE2/NET alone.
The mark [7] stands for this setting: Group B1 Period 2: EE2/NET followed by SYM-1219 2 grams on Day 1.
Where [8] appears, read: Group B2 (EE2/NET 1 day after SYM-1219 2 grams).
The mark [9] stands for this setting: Group B2: Period 2 (EE2/NET 1 day after SYM-1219 2 grams) vs Period 1 (EE2/NET alone).
The mark [10] stands for this setting: Group B2 Period 1: EE2/NET alone.
Setting [11] is: Group B2 Period 2: SYM-1219 2 grams on Day 1, EE2/NET on Day 2.
Setting [12] is: 100 clinical T. vaginalis isolates.
Where [13] appears, read: 100 clinical T. vaginalis isolates, aerobic, 46-50 h.
[14] abbreviates: meta-analysis of six published studies.

These results are taken from patent US12280037B2, “Method and pharmaceutical composition for treating or preventing trichomoniasis and uses thereof” (EVOFEM BIOSCIENCES, INC., priority 2020, dated 2025).

In brackets after ≈: the same amount, converted by molar mass. Where two headings read alike, the source gives them in different places.

On to `C#C[C@]1(O)CC[C@H]2[C@@H]3CCc4cc(O)ccc4[C@H]3CC[C@@]21C` [EE2, ethinyl estradiol], for which, in series [1] (setting [4]), the “Change in EE2 AUC” value is given as “no change” and the “EE2 Cmax reduced by” value was determined as 29%. For the same compound, in series [1] (setting [5]), the “EE2 AUC0-t, Geometric LSMean % Ratio (SE), 100*Test/Reference” value is listed as 94.26 (2.683) %; the “EE2 AUC0-∞, Geometric LSMean % Ratio (SE), 100*Test/Reference” value is reported as 105.37 (4.565) %; the “EE2 Cmax, Geometric LSMean % Ratio (SE), 100*Test/Reference” value is on record as 71.07 (4.951) %. In series [1] (setting [6]), the “EE2 AUC0-t, Mean (% CV)” value is reported as 643.67 (23.85) h*pg/mL; the “EE2 Cmax, Geometric Least Squares (LS) Means (SE)” value (“EE2 Cmax … (LS) Means (SE)” below) is recorded as 77.92 (3.839) pg/mL; the “EE2 Cmax, Mean (% CV)” value is on record as 80.63 (26.84) pg/mL. Besides, in series [1] (setting [7]), the “EE2 AUC0-t, Geometric Least Squares (LS) Means (SE)” value (“EE2 AUC0-t … (LS) Means (SE)” below) is 590.74 (11.892) h*pg/mL; the “EE2 Cmax … (LS) Means (SE)” value is 55.38 (2.728) pg/mL; the “EE2 Cmax, Mean (% CV)” value was 59.88 (42.19) pg/mL. In addition, the “EE2 PK alteration” value in series [1] (setting [8]) was “not altered”. Further, in series [1] (setting [9]), the “EE2 AUC0-t, Geometric LSMean % Ratio (SE), 100*Test/Reference” value was 99.04 (2.291) %; the “EE2 AUC0-∞, Geometric LSMean % Ratio (SE), 100*Test/Reference” value is recorded as 93.32 (3.570) %; the “EE2 Cmax, Geometric LSMean % Ratio (SE), 100*Test/Reference” value is given as 104.96 (4.034) %. Besides, in series [1] (setting [10]), the “EE2 AUC0-t … (LS) Means (SE)” value is on record as 649.96 (10.631) h*pg/mL and the “EE2 AUC0-t, Mean (% CV)” value was 680.48 (28.91) h*pg/mL. In addition, in series [1] (setting [11]), the “EE2 AUC0-t … (LS) Means (SE)” value is given as 643.74 (10.529) h*pg/mL and the “EE2 Cmax … (LS) Means (SE)” value was 87.16 (2.369) pg/mL.
For `C#C[C@]1(O)CC[C@H]2[C@@H]3CCC4=CC(=O)CC[C@@H]4[C@H]3CC[C@@]21C` [NET, norethindrone], in “clinical” (setting [6]), the AUC(0-t) (commonly exposure summed from dosing to a finite time, without extrapolation to infinity) was found to be 49.4 ng·h/mL; the AUC(0-inf) (commonly total exposure, with the tail of the curve extrapolated) came out at 57.8 ng·h/mL; the Cmax – broadly, the highest concentration seen after dosing – was found to be 9.18 ng/mL. In “clinical” (setting [7]), this compound registered an AUC(0-t) of 53.5 ng·h/mL, an AUC(0-inf) of 62.4 ng·h/mL and a Cmax of 10.1 ng/mL. In addition, in the series “clinical” (setting [10]), the AUC(0-t) was 61.4 ng·h/mL, the AUC(0-inf) came out at 75 ng·h/mL and the peak level (Cmax) was 9.63 ng/mL. In the series “clinical” (setting [11]), this compound yielded an AUC(0-t) of 61.2 ng·h/mL and an AUC(0-inf) of 71.5 ng·h/mL. Besides, under “EE2/NET administered 1 day after SYM-1219”, the “NET Cmax, AUC0-t or AUC0-∞ increased by” value is on record as 9-16%. For the same compound, under setting [4], the “NET Cmax and AUC increased” value is given as 13%. Moreover, under setting [5], the “NET AUC0-t, Geometric LSMean % Ratio (SE), 100*Test/Reference” value is 115.52 (5.828) %; the “NET AUC0-∞, Geometric LSMean % Ratio (SE), 100*Test/Reference” value is on record as 116.27 (6.032) %; the “NET Cmax, Geometric LSMean % Ratio (SE), 100*Test/Reference” value is reported as 113.18 (7.958) %. Under setting [6], the “NET λz, Mean” value is 0.07709 h⁻¹ and the “NET λz, Median” value came out at 0.07966 h⁻¹. Moreover, under setting [7], the “NET t1/2, Median” value is given as 9.12 h; the “NET λz, Mean” value worked out at 0.07886 h⁻¹; the “NET λz, Median” value amounted to 0.07642 h⁻¹. Under setting [8], the “Change in NET AUC” value is given as “no change” and the “NET Cmax increased by” value was found to be 16%. Under setting [9], the “NET AUC0-t, Geometric LSMean % Ratio (SE), 100*Test/Reference” value is given as 110.78 (4.104) %; the “NET AUC0-∞, Geometric LSMean % Ratio (SE), 100*Test/Reference” value was 108.75 (4.207) %; the “NET Cmax, Geometric LSMean % Ratio (SE), 100*Test/Reference” value was 116.46 (8.178) %. Moreover, under setting [10], the “NET AUC0-∞, Median” value was found to be 47.35 ng·h/mL; the “NET t1/2, Median” value is on record as 9.29 h; the “NET λz, Mean” value worked out at 0.07369 h⁻¹; the “NET λz, Median” value was found to be 0.07458 h⁻¹. In addition, under setting [11], the “NET AUC0-t, Median” value was found to be 44.53 ng·h/mL; the “NET Cmax, Mean (% CV)” value is 10.69 (48.34) ng/mL; the “NET Cmax, Mean (SD)” value is listed as 10.69 (5.169) ng/mL; the “NET Tmax, Median” value is on record as 1.000 h. For the same compound, under setting [11], the “NET t1/2, Median” value amounted to 9.19 h; the “NET λz, Mean” value came out at 0.07685 h⁻¹; the “NET λz, Median” value is 0.07539 h⁻¹. Also, under “SYM-1219 administered immediately after EE2/NET”, the “NET Cmax, AUC0-t or AUC0-∞ increased by” value is recorded as 13-16%.
As for `Cc1ncc([N+](=O)[O-])n1CCO` [metronidazole], in series [2] (setting [12]), the “Isolates exhibiting moderate resistance (aerobic MLC 200 μg/ml)” value was 1% and the “Prevalence of low-level resistance (aerobic MLC 50 μg/ml to 100 μg/ml)” value is reported as 7%. In series [2] (setting [13]), the “MLC, mean (±SD) among all isolates” value is 13.5 ± 26.9 µg/mL (≈ 78.9 µM) and the “MLC, median” value is 6.3 µg/mL (≈ 36.8 µM). Further, in series [2] (single clinical isolate), the “MLC in the one isolate with a higher MLC for secnidazole than for metronidazole” value stood at 1.6 µg/mL. Further, the Half-life in series [3] was 7.3 h. Also, in the series with T. vaginalis, the “Cure rates in randomized clinical trials of recommended regimens” value is given as 84%-98%. Also, the “Cure rate for single dose treatment” value with T. vaginalis (HIV-positive women with trichomoniasis (Kissinger 2010)) is reported as 83.2%. Further, the “Increase in treatment failures with single-dose 2-gram vs 7-day dose (500 mg twice daily)” value in the series on T. vaginalis (HIV-uninfected, non-pregnant women, 2018 comparison study) is 45%. In the series with T. vaginalis (setting [14]), the “Fewer treatment failures with 7 day-dose compared to single-dose” value is listed as 46% and the “Test of cure (TOC) positive rates after single-dose” value is 6.2% to 18.0%.
With `CCS(=O)(=O)CCn1c([N+](=O)[O-])cnc1C` [tinidazole], in series [3], the Half-life is 12.5 h. The “Cure rates in randomized clinical trials of recommended regimens” value in the series on T. vaginalis was 92%-100%.
